# Experimental data as given in article PMC7191905, “Synthesis and biological evaluation of new 3(2H)-pyridazinone derivatives as non-toxic anti-proliferative compounds against human colon carcinoma HCT116 cells” (Journal of Enzyme Inhibition and Medicinal Chemistry, 2020).
# Where “and” joins values, the source holds several entries; their conditions need not be identical. Identical values can stand only once. Like-named read-outs stand apart in the source and are kept apart here.
# Experiments:
# HCT116 cells [1] = experiment: MTT viability of HCT116 cells in basal conditions; assay type: cell-based, human; conditions: for IC50: Homo sapiens
# Procedure: (§1) HCT116 cell line (ATCC® CCL-247™) was cultured in DMEM (Euroclone) supplemented with 10% (v/v) heat-inactivated foetal bovine serum and 1.2% (v/v) penicillin G/streptomycin in 75 cm^2 tissue culture flask (n=5 individual culture flasks for each condition) as previously reported with or without serotonin treatment.
# (§2) In the same condition, the kynurenic acid (KA) extracellular level was determined through a validated high performance liquid chromatography (HPLC)-fluorimetric method. To assess the cytotoxicity of synthesised compounds (VIa–o), a viability assay was performed on 96 microwell plates, using 3-(4,5-dimethylthiazol-2-yl)-2,5-diphenyltetrazolium bromide (MTT) test. Cells were incubated with compounds (10 µg/mL) for 24 h. An aliquot of 10 µL of MTT (5 mg/mL) was added to each well and incubated for 3 h. The viability of HCT116 cell line was evaluated both in basal conditions and after challenging with serotonin (5-HT) at 1 ng/mL. The anti-proliferative effects were compared to that induced by daunorubicin (0.1–20 µg/mL), used as reference drug.
# Considering the effects induced by all compounds on HCT116 viability and KA production, compounds VIc, VIe and VIk were further assayed in order to deepen our knowledge about their anti-proliferative effects, in basal conditions. Specifically, HCT116 cells were stimulated with the aforementioned compounds, in a wider concentration range (0.1–20 µg/mL), with respect to the initial test. Additionally, the anti-proliferative effects induced by these compounds were compared with that of daunorubicin, used as anti-tumoral reference drug in the same concentration range.
# HCT116 cells [2] = experiment: Wound healing paradigm (spontaneous migration of HCT116 cells); assay type: cell-based, human; conditions: compounds at their IC50 (VIe 3.09 µg/mL, VIk 2.73 µg/mL), 48 h after lesion of cell monolayer
# Procedure: The detailed protocol related to wound healing experimental model was described in our previous article.
# Finally, considering their potencies in reducing HCT116 cell viability, compounds VIe and VIk were further studied in order to evaluate their effects on the spontaneous migration of HCT116 cells, through the wound healing paradigm. In this experiment, HCT116 cells were treated with compounds VIe and VIk at their respective IC50 values. The spontaneous migration of HCT116 cells was monitored in the 48 h following the experimental lesion of cell monolayer. The null effects on sponstaneous migration (Figure 6) rule out any involvement of the tested compounds in altering the invasion capacity of human colon cancer cells.
# [3] = test system: kynurenic acid (KA) release from colon cancer HCT116 cells; experiment: Extracellular kynurenic acid (KA) level of 5-HT-stimulated HCT116 cells (HPLC-fluorimetric); assay type: cell-based, human; conditions: for Effect on 5-HT-induced KA depletion: compounds 10 µg/mL, 5-HT 1 ng/mL, vs 5-HT group
# Procedure: as §1, §2
# Furthermore, compounds were assayed for evaluating modulatory effects on the extracellular level of KA, one of the two main kynurenine metabolites. Kynurenic acid was reported to be produced in multiple tissues, including brain and peripheral organs, although pharmacokinetic studies excluded any possibility of the peripheral pool to cross blood-brain barrier. In the brain, the kynurenine-derived kynurenic acid was described as a reliable marker of neuroprotection[28]^,[29], whereas it seems to be involved in inflammatory response at the peripheral level. Kynurenic acid was also described as an anti-proliferative factor towards colon, renal, and glioma cells. Specifically, this marker was considered as a potential chemopreventive agent against colon cancer[32]^,[33]. […] They were able in potentiating 5-HT-induced KA depletion, as well.
# [4] = HCT-116, basal conditions, concentration range 0.1–20 µg/mL, MTT test, read-out: IC50 (HCT116 cell viability)
Structure (SMILES),melting point,also measured
"COc1ccc(-c2ccc(=O)n(CC(=O)NN=Cc3ccccc3Br)n2)cc1F [VIk, N’-(2-bromobenzylidene)-2–(3-(3-fluoro-4-methoxyphenyl)-6-oxopyridazin-1(6H)-yl)acetohydrazide]",189 °C,IC50 (HCT116 cells [1]; [4]): 2.73 µg/mL; Effect on spontaneous migration of HCT116 cells (HCT116 cells [2]): null effects
"COc1ccc(-c2ccc(=O)n(CC(=O)NN=Cc3ccccc3OC)n2)cc1F [VIf, N’-(2-methoxybenzylidene)-2–(3-(3-fluoro-4-methoxyphenyl)-6-oxopyridazin-1(6H)-yl)acetohydrazide]",214 °C,
"COc1ccc(-c2ccc(=O)n(CC(=O)NN=Cc3ccc(Br)cc3)n2)cc1F [VIm, N’-(4-bromobenzylidene)-2–(3-(3-fluoro-4-methoxyphenyl)-6-oxopyridazin-1(6H)-yl)acetohydrazide]",256 °C,
"COc1ccc(-c2ccc(=O)n(CC(=O)NN=Cc3ccc(F)cc3)n2)cc1F [VIb, N’-(4-fluorobenzylidene)-2–(3-(3-fluoro-4-methoxyphenyl)-6-oxopyridazin-1(6H)-yl)acetohydrazide]",238 °C,Effect on 5-HT-induced KA depletion [3]: failed to prevent the inhibition of KA level
"COc1ccc(-c2ccc(=O)n(CC(=O)NN=Cc3ccc(O)cc3)n2)cc1F [VIn, N’-(4-hydroxybenzylidene)-2–(3-(3-fluoro-4-methoxyphenyl)-6-oxopyridazin-1(6H)-yl)acetohydrazide]",251 °C,
"COc1cccc2c1C(=O)c1c(O)c3c(c(O)c1C2=O)C[C@@](O)(C(C)=O)C[C@@H]3O[C@H]1C[C@H](N)[C@H](O)[C@H](C)O1 [daunorubicin, reference compound]",,"IC50 (HCT116 cells [1]; HCT-116, read-out: IC50 (HCT116 cell viability)): 1.39 µg/mL"
"COc1ccc(-c2ccc(=O)n(CC(=O)NN=Cc3ccccc3)n2)cc1F [VIa, N’-benzylidene-2-(3-(3-fluoro-4-methoxyphenyl)-6-oxopyridazin-1(6H)-yl)acetohydrazide]",132 °C,Effect on 5-HT-induced KA depletion [3]: failed to prevent the inhibition of KA level
"COc1ccc(-c2ccc(=O)n(CC(=O)NN=Cc3ccc([N+](=O)[O-])cc3)n2)cc1F [VIi, N’-(4-nitrobenzylidene)-2–(3-(3-fluoro-4-methoxyphenyl)-6-oxopyridazin-1(6H)-yl)acetohydrazide]",265 °C,
"COc1ccc(-c2ccc(=O)n(CC(=O)NN=Cc3ccccc3C)n2)cc1F [VIe, N’-(2-methylbenzylidene)-2–(3-(3-fluoro-4-methoxyphenyl)-6-oxopyridazin-1(6H)-yl)acetohydrazide]",210 °C,IC50 (HCT116 cells [1]; [4]): 3.09 µg/mL; Effect on spontaneous migration of HCT116 cells (HCT116 cells [2]): null effects
"COc1ccc(-c2ccc(=O)n(CC(=O)NN=Cc3ccc(C(C)C)cc3)n2)cc1F [VIj, N’-(4-isopropylbenzylidene)-2–(3-(3-fluoro-4-methoxyphenyl)-6-oxopyridazin-1(6H)-yl)acetohydrazide]",164 °C,
"COc1ccc(-c2ccc(=O)n(CC(=O)NN=Cc3ccc(C)cc3)n2)cc1F [VIg, N’-(4-methylbenzylidene)-2–(3-(3-fluoro-4-methoxyphenyl)-6-oxopyridazin-1(6H)-yl)acetohydrazide]",220 °C,
"COc1ccc(-c2ccc(=O)n(CC(=O)NN=Cc3ccc(Cl)cc3Cl)n2)cc1F [VIo, N’-(2,4-dichlorobenzylidene)-2–(3-(3-fluoro-4-methoxyphenyl)-6-oxopyridazin-1(6H)-yl)acetohydrazide]",229 °C,
"NCCc1c[nH]c2ccc(O)cc12 [Compound 5-HT, serotonin, reference compound]",,"Effect of 5-HT on HCT116 cell viability (HCT116 cells [1]; 5-HT 10 pg/mL – 1 µg/mL, MTT test): increased in a concentration-dependent manner"
"COc1ccc(-c2ccc(=O)n(CC(=O)NN=Cc3ccccc3F)n2)cc1F [VId, N’-(2-fluorobenzylidene)-2–(3-(3-fluoro-4-methoxyphenyl)-6-oxopyridazin-1(6H)-yl)acetohydrazide]",222 °C and 224 °C,
"COc1ccc(C=NNC(=O)Cn2nc(-c3ccc(OC)c(F)c3)ccc2=O)cc1 [VIh, N’-(4-methoxybenzylidene)-2–(3-(3-fluoro-4-methoxyphenyl)-6-oxopyridazin-1(6H)-yl)acetohydrazide]",207 °C,
"COc1ccc(-c2ccc(=O)n(CC(=O)NN=Cc3ccc(C(F)(F)F)cc3)n2)cc1F [VIc, N’-(4-trifluoromethylbenzylidene)-2–(3-(3-fluoro-4-methoxyphenyl)-6-oxopyridazin-1(6H)-yl)acetohydrazide]",252 °C,"IC50 (HCT116 cells [1]; [4]): 15 µg/mL; IC50 fold higher compared to daunorubicin (HCT116 cells [1]; basal conditions, HCT116 viability): at least 10 fold; KA level compared to basal condition (CTR group) ([3]; compound 10 µg/mL, 5-HT-stimulated HCT116 cells): even higher compared to basal condition; Effect on 5-HT-induced KA depletion [3]: able to blunt 5-HT-induced KA depletion"
